Data reported in US10647699B2, “Substituted 2-oxyimidazolylcarboxamides as pesticides” (Bayer CropScience Aktiengesellschaft, priority 2016, dated 2020).

Columns and labels:
[1] = log P by HPLC on reversed-phase columns (OECD Guideline 117), neutral range; format: physicochemical; settings: for chromatographic logP: reversed-phase (C18) HPLC column, read-out: LogP-neutral
Myzus persicae [2] = test: Myzus persicae spray test on bell pepper plants; format: in vivo; settings: after 6 days, application rate 20 ppm
Method: Myzus persicae-Spray Test
(§1) Solvent: 14 parts by weight of dimethylformamide
(§2) Emulsifier: alkylaryl polyglycol ether
(§3) To produce a suitable preparation of active compound, 1 part by weight of active compound is dissolved using the specified parts by weight of solvent and made up with water containing an emulsifier concentration of 1000 ppm until the desired concentration is attained. To produce further test concentrations, the formulation is diluted with emulsifier-containing water. If the addition of ammonium salts or/and penetrants is required, these are each added in a concentration of 1000 ppm to the formulation solution.
Bell pepper plants (Capsicum annuum) severely infested with the green peach aphid (Myzus persicae) are treated by spraying with the active compound formulation in the desired concentration.
After 6 days, the kill in % is determined. 100% means that all of the aphids have been killed; 0% means that none of the aphids have been killed.

Aphis gossypii = Aphis gossypii spray test on cotton plants; format: in vivo; settings: after 6 days, application rate 20 ppm, cotton plants; for pest or weed control at 20 ppm: Aphis gossypii, 144 h, read-out: efficacy (kill)
Method: Aphis gossypii—Spray Test
as §1, §2, §3
Cotton plants (Gossypium hirsutum) which are heavily infested by the cotton aphid (Aphis gossypii) are sprayed with an active compound formulation of the desired concentration.
After 6 days, the kill in % is determined. 100% means that all the aphids have been killed; 0% means that no aphids have been killed.

Myzus persicae [3] = test: Myzus persicae oral test (MYZUPE O); format: in vivo; settings: for Emax at 0.8 ppm / Emax at 4 ppm / pest or weed control at 20 ppm: Myzus persicae, po, 120 h; for Emax at 0.8 ppm / Emax at 4 ppm: MYZUPE O, 5 dat, read-out: % efficacy; for pest or weed control at 20 ppm / efficacy: after 5 days, application rate 20 ppm; for pest or weed control at 20 ppm: read-out: efficacy
Method: Solvent: 100 parts by weight of acetone
To produce a suitable preparation of active compound, 1 part by weight of active compound is dissolved using the specified parts by weight of solvent and made up with water until the desired concentration is attained.
50 μl of the active compound preparation are transferred into microtitre plates and made up to a final volume of 200 μl with 150 μl of IPL41 insect medium (33%+15% sugar). Subsequently, the plates are sealed with parafilm, which a mixed population of green peach aphids (Myzus persicae) within a second microtitre plate is able to puncture and imbibe the solution through it.
After 5 days, the efficacy in % is determined. 100% means that all the aphids have been killed; 0% means that no aphids have been killed.
Myzus persicae—Oral Test (MYZUPE O)
After 5 or 6 days (dat), the efficacy in % is determined. 100% means that all the aphids have been killed; 0% means that no aphids have been killed.

Boophilus microplus = Boophilus microplus injection test; format: in vivo; settings: 20 μg/animal, assessed after 7 days
Method: Boophilus microplus—Injection Test Solvent: dimethyl sulphoxide To produce a suitable preparation of active compound, 10 mg of active compound are mixed with 0.5 ml of solvent and the concentrate is diluted with solvent to the desired concentration. […] The animals are transferred into dishes and kept in a climate-controlled room. Efficacy is assessed after 7 days by laying of fertile eggs. Eggs which are not visibly fertile are stored in a climate-controlled cabinet until the larvae hatch after about 42 days.

Myzus persicae [4] = test: Myzus persicae spray test (MYZUPE), Chinese cabbage leaf discs; format: in vivo; settings: for Emax at 100 g/ha / pest or weed control at 500 g/ha: Myzus persicae, foliar, 144 h; for Emax at 100 g/ha: MYZUPE, 100 g of ai/ha, 6 dat, read-out: % efficacy; for pest or weed control at 500 g/ha: after 6 days, read-out: efficacy; for pest or weed control at 500 g/ha / efficacy: application rate 500 g/ha; for efficacy: after 5 days
Method: Myzus persicae—Spray Test
as §3, with “water.” for “water. If the addition of ammonium salts or/and penetrants is required, these are each added in a concentration of 1000 ppm to the formulation solution.”
Discs of Chinese cabbage leaves (Brassica pekinensis) infested by all stages of the green peach aphid (Myzus persicae) are sprayed with an active compound formulation of the desired concentration.
After 5 or 6 days, the efficacy in % is determined. 100% means that all the aphids have been killed; 0% means that no aphids have been killed.
Myzus persicae—Spray Test (MYZUPE)
Discs of Chinese cabbage leaves (Brassica pekinensis) infested by all stages of the green peach aphid (Myzus persicae) are sprayed with an active compound preparation of the desired concentration.
After the desired period of time, the efficacy in % is determined. 100% means that all the aphids have been killed; 0% means that no aphids have been killed.

Tetranychus urticae = Tetranychus urticae spray test, OP-resistant, bean leaf discs; format: in vivo; settings: after 6 days, application rate 500 g/ha
Method: Tetranychus urticae—Spray Test, OP-Resistant
as §3, with “water.” for “water. If the addition of ammonium salts or/and penetrants is required, these are each added in a concentration of 1000 ppm to the formulation solution.”
Discs of bean leaves (Phaseolus vulgaris) infested with all stages of the greenhouse red spider mite (Tetranychus urticae) are sprayed with an active compound formulation of the desired concentration.
After 6 days, the efficacy in % is determined. 100% means that all the spider mites have been killed; 0% means that no spider mites have been killed.

Row | Compound | efficacy (Tetranychus urticae) [%] | LogP-neutral ([1]; HPLC, neutral range pH 7.8) | efficacy (kill) (Aphis gossypii) [%] | efficacy (Myzus persicae [3]) [%] | efficacy (Myzus persicae [4]) [%] | LogP-neutral ([1]; pH 7.8) | further results
1 | CC(C)Oc1ncc(C(=O)N(C)c2cccnc2)n1C [Example II-1] |  |  |  |  |  |  | chromatographic logP ([1]; HPLC, neutral range pH 7.8): 1.47; efficacy (kill) (Myzus persicae [2]): 100%; pest or weed control at 20 ppm (Aphis gossypii): 100%; Emax at 0.8 ppm (Myzus persicae [3]): 90%; Emax at 4 ppm (Myzus persicae [3]): 100%; pest or weed control at 20 ppm (Myzus persicae [3]): 100%; efficacy (no fertile eggs laid) (Boophilus microplus): 100%
2 | CN(C(=O)c1cnc(Oc2cc(F)ccc2F)n1C)c1cccnc1 [Example II-14] | 90 |  |  |  |  |  | chromatographic logP ([1]; HPLC, neutral range pH 7.8): 1.87; Emax at 100 g/ha (Myzus persicae [4]): 90%; pest or weed control at 500 g/ha (Myzus persicae [4]): 100%; pest or weed control at 20 ppm (Aphis gossypii): 99%; Emax at 0.8 ppm (Myzus persicae [3]): 90%; pest or weed control at 20 ppm (Myzus persicae [3]): 100%
3 | CN(C(=O)c1cnc(Oc2ccc(F)cc2)n1C)c1cccnc1 [Example II-19] |  | 1.76 | 100 | 100 |  |  | efficacy (kill) (Myzus persicae [2]): 95%
4 | CN(C(=O)c1cnc(OCCC(F)(F)F)n1C)c1cccnc1 [Example II-23] | 100 |  |  |  |  |  | Emax at 100 g/ha (Myzus persicae [4]): 90%; pest or weed control at 500 g/ha (Myzus persicae [4]): 90%; pest or weed control at 20 ppm (Aphis gossypii): 95%; Emax at 0.8 ppm (Myzus persicae [3]): 100%; Emax at 4 ppm (Myzus persicae [3]): 100%; pest or weed control at 20 ppm (Myzus persicae [3]): 100%
5 | CN(C(=O)c1cnc(OCCCF)n1C)c1cccnc1 [Example II-33] |  | 1.26 | 100 | 100 | 90 |  | 
6 | CN(C(=O)c1cnc(OCCC(F)(C(F)(F)F)C(F)(F)F)n1C)c1cccnc1 [Example II-34] |  |  | 100 | 100 | 100 | 2.51 | 
7 | CN(C(=O)c1cnc(OC2CCOC2)n1C)c1cccnc1 (stereo not drawn) [Example II-35] |  | 1 | 100 | 100 | 90 |  | 
8 | CCN(C(=O)c1cnc(Oc2ccc(Cl)nc2)n1C)c1cccnc1 [Example II-36] |  | 1.79 | 100 | 100 | 90 |  | 
9 | C=CCOc1ncc(C(=O)N(C)c2cccnc2)n1C [Example II-37] | 90 |  | 100 | 100 | 100 | 1.38 | 
10 | CN(C(=O)c1cnc(OCCCC#N)n1C)c1cccnc1 [Example II-38] |  | 1.08 | 98 | 100 | 90 |  | 
11 | CN(C(=O)c1cnc(Oc2ccc(F)nc2)n1C)c1cccnc1 [Example II-40] |  | 1.33 | 100 | 100 | 100 |  | efficacy (no fertile eggs laid) (Boophilus microplus): 80%
12 | CN(C(=O)c1cnc(Oc2cncc(Cl)c2)n1C)c1cccnc1 [Example II-41] |  |  | 100 | 100 | 100 | 1.57 | 
13 | CN(C(=O)c1cnc(Oc2cncc(F)c2)n1C)c1cccnc1 [Example II-42] |  |  | 100 | 100 | 90 | 1.3 | 
14 | CN(C(=O)c1cnc(Oc2cncc(C(F)(F)F)c2)n1C)c1cccnc1 [Example II-43] |  |  | 100 | 100 | 90 | 1.83 | 
15 | CN(C(=O)c1cnc(Oc2ccc(Oc3ccc(Cl)nc3)nc2)n1C)c1cccnc1 [Example II-45] |  |  | 99 | 100 |  |  | efficacy (kill) (Myzus persicae [2]): 98%
16 | CCN(C(=O)c1cnc(OC(C)C)n1C)c1cccnc1 [Example II-46] |  |  | 100 | 100 | 100 | 1.7 | 
17 | CCN(C(=O)c1cnc(OCCCC#N)n1C)c1cccnc1 [Example II-47] |  | 1.33 | 100 | 100 | 90 |  | 
18 | CN(C(=O)c1cnc(Oc2ccc(C#N)nc2)n1C)c1cccnc1 [Example II-58] |  | 1.1 | 100 | 100 | 90 |  | 
19 | CN(C(=O)c1cnc(Oc2cccc(Oc3ccccc3)c2)n1C)c1cccnc1 [Example II-81] | 100 |  |  |  |  | 2.72 | 
20 | CCCCSc1cccc(Oc2ncc(C(=O)N(C)c3cccnc3)n2C)c1 [Example II-82] | 100 |  |  | 100 | 100 | 3.19 | 
21 | CN(C(=O)c1cnc(Oc2cc(Cl)cc(C(F)(F)F)c2)n1C)c1cccnc1 [Example II-87] | 90 |  |  | 100 | 90 | 2.87 | 
22 | CN(C(=O)c1cnc(Oc2ccc(F)c(Cl)c2)n1C)c1cccnc1 [Example II-89] | 100 | 2.17 |  | 100 | 100 |  | 
23 | Cn1c(C(=O)N(c2cccnc2)C2CC2)cnc1Oc1cccc(C(F)(F)F)c1 [Example II-94] | 90 |  |  | 100 |  | 2.59 | 
